Patent US10034915B2, “Small heat shock proteins and active fragments thereof as a therapy for inflammation and ischemia” (The Board of Trustees of the Leland Stanford Junior …, priority 2011, dated 2018)
“Also recorded” adds a separate entry of the source.

Experiments:
Type in all cases: in vivo, mouse
stroke in Cryab−/− mice = test: Cerebral ischemia (middle cerebral artery occlusion) in Cryab−/− mice, lesion size by silver stain; conditions: IP 1 h before stroke, 12 h, 24 h and daily for seven days, vs PBS treated Cryab−/−
Experimental: To test if increased plasma Cryab after stroke was beneficial, Cryab^−/− mice were given intraperitoneal injections of recombinant Cryab protein starting 1 h before stroke onset and continuing at 12 h, 24 h and daily afterwards for seven days in total.
Induction of cerebral ischemia. We used 12 to 14-week-old, male mice weighing 25-30 g. The weights of the animals in all experimental groups were similar. We used filament occlusion model of cerebral ischemia as described. Briefly, mice were anesthetized with 2% isoflurane in a mixture of 20% oxygen and 80% air. After the surgical exposure, the left external and common carotid arteries were permanently ligated. Then, a 7-0 mm, silicon rubber-coated, reusable monofilament (Doccol Inc, 70SPRe2045) was inserted into the left common carotid artery and advanced towards the left internal carotid artery 9-10 mm after the left carotid bifurcation. The core body temperature was checked by a rectal probe and maintained at 37° C. throughout the surgery by a heating pad and lamp. The cerebral blood flow was measured by a laser Doppler flow-meter and at least 80% reduction compared to presurgical baseline values was achieved after the insertion of the filament. The flowmeter probe was placed 2 mm posterior and 5-6 mm lateral to the bregma on the skull. The reperfusion was achieved by withdrawal of the filament 30 min after the insertion. […]

mice with EAE = test: EAE in C57BL/6J mice (MOG35-55/CFA, pertussis toxin), neurological impairment scoring
Experimental: It was tested if the chaperone function of residues 73-92 of HspB5 were capable of reducing the symptoms of experimental allergic encephalomyelist (EAE), by inducing EAE in 9-week old female C57BL/6J by immunized subcutaneously with an emulsion containing 200 μg myelin oligodendrocyte glycoprotein 35-55 (MOG35-55; […] (SEQ ID NO:24)) in saline and an equal volume of complete Freund's adjuvant. Intraperitoneal injection of pertussis toxin at 0 and 48 h post-immunization results in paralysis beginning at day 12.

brain T cells = test: Brain T cell populations at 7 d after stroke (flow cytometry), wild-type mice; conditions: vs PBS
Experimental: The T cell populations in brain were analyzed at 7 d after stroke. […] However, when we quantitatively analyzed how many cytokine molecules existed per cell, we found fewer IL-17-PE molecules per CD3^+, CD4^+ and gd-T cells in Cryab-treated mice brains compared to PBS-treated ones (FIG. 15k, l).

Substance: αB-crystallin [HSPB5]
- lesion size at 7 d after stroke (stroke in Cryab−/− mice): significantly decreased; also recorded: confers neuroprotection
- clinical paralysis / clinical scores of mice with EAE (mice with EAE; intraperitoneal 10-50 μg every other day starting at the peak of disease): significant reduction of clinical paralysis
- symptoms of EAE (mice with EAE; intravenous administration): dramatic reduction of symptoms
- symptoms after cessation of the administration (mice with EAE; mouse, in vivo): returned soon after cessation
- IL-17-PE molecules per CD3+, CD4+ and gd-T cells (brain T cells; brain): fewer
- number of IFN-g-PE molecules per CD3+ or CD4+ cells (brain T cells; brain): no differences
- percentages of IFN-g+ cells among CD3+ or CD4+ cells (brain T cells; brain): no differences
- percentages of IL-17+ cells among CD3+, CD4+ or gd-T cells (brain T cells; brain): no differences
- total number of the brain CD3+, CD4+, CD8+ and gd-T cells (brain T cells): did not change
